Values quoted from earlier work as cited in patent US20230172202A1, “INSECT AND NON-INSECT ARTHROPOD PEST REPELLENT COMPOSITIONS AND METHODS” (Livful Inc., priority 2021, published 2023).

Experiments:
mosquitos = conditions: 25% active ingredient (IR3535 in ethanol); human subjects, field
[1] = according to the manufacturer (Merck KGaA)

Row | ideal pH for IR3535 [1] | Structure (SMILES) | mean complete protection time (mean CPT) (mosquitos) [h]
1 | – | CCN(CC)C(=O)c1cccc(C)c1 [DEET, N,N-diethyl-m-toluamide] | 5.6
2 | 6.0-6.5 | CCCCN(CCC(=O)OCC)C(C)=O [IR3535®, ethyl butylacetylaminopropionate] | 3.0
